Tests used:
[1] = system: angiotensin II; conditions: as reported; cited from earlier work
[2] = target: T1, A-II receptor (Bos taurus, UniProt P25104); assay: Inhibition of binding of angiotensin-II to angiotensin receptor (radioreceptor assay, 125I-A-II); design: species or system bovine (membrane fraction of bovine adrenal cortex); conditions: bovine adrenal cortex membrane, 125I-A-II, 1 h room temperature; for inhibition at 10 µM: 1 × 10^-5 M, read-out: Radioreceptor assay, inhibition of A-II binding, 1 × 10^-5 M; for inhibition at 1 µM: 1 × 10^-6 M, read-out: Radioreceptor assay, inhibition of A-II binding, 1 × 10^-6 M
T1 construct: An A-II receptor was prepared from the membrane fraction of bovine adrenal cortex; from tissue; host or cells: bovine adrenal cortex, membrane fraction
T1 sequence (P25104 1-359): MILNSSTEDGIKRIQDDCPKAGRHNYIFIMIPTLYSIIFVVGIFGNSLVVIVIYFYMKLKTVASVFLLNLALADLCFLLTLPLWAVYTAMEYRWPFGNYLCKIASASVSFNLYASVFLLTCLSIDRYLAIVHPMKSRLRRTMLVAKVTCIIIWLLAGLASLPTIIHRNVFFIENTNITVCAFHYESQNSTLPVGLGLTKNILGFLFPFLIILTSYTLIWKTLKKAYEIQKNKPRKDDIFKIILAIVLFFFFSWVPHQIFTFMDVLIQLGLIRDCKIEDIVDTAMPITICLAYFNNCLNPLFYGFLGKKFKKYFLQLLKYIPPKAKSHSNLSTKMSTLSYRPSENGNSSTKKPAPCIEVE
Description: Inhibition of binding of angiotensin-II to angiotensin receptor
An A-II receptor was prepared from the membrane fraction of bovine adrenal cortex.

[3] = system: pressor action of A-II; assay: Inhibitory effect on pressor action of A-II (oral drug, i.v. A-II 100 ng/kg); type: in vivo, Jcl:SD rats (9 week old, male); conditions: Rattus norvegicus, po, rats, A-II 100 ng/kg i.v.; for inhibition in vivo at 3 mg/kg: 3 mg/kg p.o., read-out: Pressor response to A II (p.o.), 3 mg/kg (percent inhibition); for inhibition in vivo at 30 mg/kg: 30 mg/kg p.o., read-out: Pressor response to A II (p.o.), 30 mg/kg (percent inhibition)
Source text: Inhibitory effect of the compound of this invention on pressor action of A-II
Jcl:SD rats (9 week old, male) were used. On the day prior to that of the experiment, these animals were applied with cannulation into the femoral artery and vein under anesthesia with pentobarbital Na. The animals were fasted but allowed free access to drinking water until the experiment was started. On the day of conducting the experiment, the artery cannula was connected with a blood-pressure transducer, and the average blood pressure was recorded by means of polygraph. […] The drugs were orally administered, and then, at each point of the measurement, A-II was administered intravenously, and the pressor action was similarly measured. By comparing the pressor action before and after administration of the drug, the percent inhibition by the drug on A-II-induced pressor action was evaluated.

| Molecule | inhibition at 10 µM [2] | inhibition at 1 µM [2] | angiotensin II antagonism [1] | inhibition in vivo at 3 mg/kg [3] | inhibition in vivo at 30 mg/kg [3] |
| --- | --- | --- | --- | --- | --- |
| [Sar^1, Ala^8 ]AII | – | – | potent angiotensin II antagonism | – | – |
| CNCC(=O)N[C@@H](CCCN=C(N)N)C(=O)N[C@H](C(=O)N[C@@H](Cc1ccc(O)cc1)C(=O)N[C@H](C(=O)N[C@@H](Cc1cnc[nH]1)C(=O)N1CCC[C@H]1C(=O)N[C@@H](C)C(=O)O)C(C)C)C(C)C [saralasin] | – | – | potent angiotensin II antagonism | – | – |
| CCCCc1nc2cccc(C(=O)O)c2n1Cc1ccc(-c2ccccc2-c2nnn[nH]2)cc1 [Working Example 1, 2-Butyl-1-[[2'-(1H-tetrazol-5-yl)biphenyl-4-yl]methyl]benzimidazole-7-carboxylic acid] | 95% | 78% | – | > 70% | > 70% |
| CCCCc1nc2c(C(N)=O)cccc2n1Cc1ccc(-c2ccccc2-c2nnn[nH]2)cc1 [compound 30, 2-Butyl-1-[[2'-(1H-tetrazol-5-yl)biphenyl-4-yl]methyl]benzimidazole-4-carboxamide, reference compound] | 40% | 1% | – | < 30% | < 30% |
| CCCCc1nc2cccc(C(=O)OC(C)OC(=O)OC3CCCCC3)c2n1Cc1ccc(-c2ccccc2-c2nn[nH]n2)cc1 (stereo not shown) [Working Example 37] | 94% | 65% | – | > 70% | > 70% |

Continued, in another order:

| inhibition at 10 µM [2] | inhibition at 1 µM [2] | Molecule | angiotensin II antagonism [1] | inhibition in vivo at 3 mg/kg [3] | inhibition in vivo at 30 mg/kg [3] |
| --- | --- | --- | --- | --- | --- |
| 97% | 83% | CCCCc1nc2cccc(C(=O)OCc3oc(=O)oc3C)c2n1Cc1ccc(-c2ccccc2-c2nn[nH]n2)cc1 [Working Example 39] | – | > 70% | > 70% |
| 93% | 75% | CCCCc1nc2cccc(CC(=O)OCC)c2n1Cc1ccc(-c2ccccc2-c2nn[nH]n2)cc1 [Working Example 17, Ethyl [[2-butyl-1-[2'-(1H-tetrazol-5-Yl)biphenyl-4-yl]methyl]benzimidazol-7-yl]acetate] | – | 30 to 50% | – |
| 90% | 40% | CCCCc1nc2cc(C)cc(C(=O)O)c2n1Cc1ccc(-c2ccccc2-c2nn[nH]n2)cc1 [Working Example 10, 2-Butyl-5-methyl-1-[[2,-(1H-tetrazol-5-yl)biphenyl-4-yl]methyl]benzimidazole-7-carboxylic acid] | – | > 70% | > 70% |
